From patent publication US9938281B2 (Merck Sharp & Dohme Corp., priority 2012, dated 2018)

What was measured:
PI3K-delta = molecular target: T1, PI3K-delta (Homo sapiens, UniProt O00329); assay: HTRF PI3K biochemical assay, delta isoform; settings: form screened (neutral or TFA salt) given, read-out: PI3Kdelta IC50
T1 construct: purchased Upstate; Millipore 14-604

PI3K-alpha = molecular target: T2, PI3K-alpha (Homo sapiens, UniProt P42336); assay: HTRF PI3K biochemical assay, alpha isoform; settings: ratio PI3K-alpha IC50 value / PI3K-delta IC50 value
T2 construct: purchased Upstate; Millipore 14-602
T2 sequence (P42336 whole entry, canonical isoform): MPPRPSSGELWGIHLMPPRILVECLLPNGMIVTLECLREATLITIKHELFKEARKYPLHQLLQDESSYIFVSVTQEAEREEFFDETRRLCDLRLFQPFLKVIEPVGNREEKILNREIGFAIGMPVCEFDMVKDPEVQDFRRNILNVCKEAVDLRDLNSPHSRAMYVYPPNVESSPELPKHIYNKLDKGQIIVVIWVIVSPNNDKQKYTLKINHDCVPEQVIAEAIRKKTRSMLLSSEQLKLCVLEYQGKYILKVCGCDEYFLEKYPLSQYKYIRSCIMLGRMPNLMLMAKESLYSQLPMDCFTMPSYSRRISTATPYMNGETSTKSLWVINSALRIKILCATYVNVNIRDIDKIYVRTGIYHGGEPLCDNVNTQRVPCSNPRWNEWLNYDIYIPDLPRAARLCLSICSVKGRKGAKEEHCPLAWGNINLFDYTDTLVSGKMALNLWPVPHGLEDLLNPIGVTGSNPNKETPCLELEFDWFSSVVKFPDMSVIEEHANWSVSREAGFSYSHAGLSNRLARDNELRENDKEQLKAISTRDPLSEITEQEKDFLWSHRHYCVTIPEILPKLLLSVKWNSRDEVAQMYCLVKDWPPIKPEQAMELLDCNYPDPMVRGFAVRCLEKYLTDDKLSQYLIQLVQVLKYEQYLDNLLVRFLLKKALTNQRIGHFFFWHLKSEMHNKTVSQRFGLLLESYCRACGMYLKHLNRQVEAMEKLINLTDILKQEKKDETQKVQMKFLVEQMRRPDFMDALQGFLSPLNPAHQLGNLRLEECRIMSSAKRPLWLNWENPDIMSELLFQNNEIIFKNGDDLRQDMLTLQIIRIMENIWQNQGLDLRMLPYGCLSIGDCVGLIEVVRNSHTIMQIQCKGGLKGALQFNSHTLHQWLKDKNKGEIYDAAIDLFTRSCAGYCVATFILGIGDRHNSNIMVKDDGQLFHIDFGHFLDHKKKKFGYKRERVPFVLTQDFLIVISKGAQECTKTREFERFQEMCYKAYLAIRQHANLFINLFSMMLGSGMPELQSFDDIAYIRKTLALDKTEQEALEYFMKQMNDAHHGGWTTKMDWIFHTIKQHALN
T2 sequence (P27986 whole entry partner, canonical isoform): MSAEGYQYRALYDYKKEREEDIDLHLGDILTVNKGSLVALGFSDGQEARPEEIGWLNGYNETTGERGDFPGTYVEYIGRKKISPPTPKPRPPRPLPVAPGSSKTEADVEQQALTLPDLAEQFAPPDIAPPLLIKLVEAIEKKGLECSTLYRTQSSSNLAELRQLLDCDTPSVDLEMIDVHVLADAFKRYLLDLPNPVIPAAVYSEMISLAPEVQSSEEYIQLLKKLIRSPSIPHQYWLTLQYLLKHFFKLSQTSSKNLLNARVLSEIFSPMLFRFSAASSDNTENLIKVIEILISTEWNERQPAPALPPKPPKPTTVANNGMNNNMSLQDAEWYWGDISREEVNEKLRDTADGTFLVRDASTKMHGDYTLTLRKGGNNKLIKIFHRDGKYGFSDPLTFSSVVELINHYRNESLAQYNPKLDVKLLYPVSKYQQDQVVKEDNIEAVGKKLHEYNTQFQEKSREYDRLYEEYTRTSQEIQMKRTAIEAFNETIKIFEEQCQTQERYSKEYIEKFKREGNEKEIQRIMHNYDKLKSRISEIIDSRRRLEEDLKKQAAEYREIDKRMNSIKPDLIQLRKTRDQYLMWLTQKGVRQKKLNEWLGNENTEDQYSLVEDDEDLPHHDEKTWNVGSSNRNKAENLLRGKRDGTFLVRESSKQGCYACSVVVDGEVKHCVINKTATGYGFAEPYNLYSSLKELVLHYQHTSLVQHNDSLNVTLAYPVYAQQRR

T1 sequence (O00329 whole entry, canonical isoform): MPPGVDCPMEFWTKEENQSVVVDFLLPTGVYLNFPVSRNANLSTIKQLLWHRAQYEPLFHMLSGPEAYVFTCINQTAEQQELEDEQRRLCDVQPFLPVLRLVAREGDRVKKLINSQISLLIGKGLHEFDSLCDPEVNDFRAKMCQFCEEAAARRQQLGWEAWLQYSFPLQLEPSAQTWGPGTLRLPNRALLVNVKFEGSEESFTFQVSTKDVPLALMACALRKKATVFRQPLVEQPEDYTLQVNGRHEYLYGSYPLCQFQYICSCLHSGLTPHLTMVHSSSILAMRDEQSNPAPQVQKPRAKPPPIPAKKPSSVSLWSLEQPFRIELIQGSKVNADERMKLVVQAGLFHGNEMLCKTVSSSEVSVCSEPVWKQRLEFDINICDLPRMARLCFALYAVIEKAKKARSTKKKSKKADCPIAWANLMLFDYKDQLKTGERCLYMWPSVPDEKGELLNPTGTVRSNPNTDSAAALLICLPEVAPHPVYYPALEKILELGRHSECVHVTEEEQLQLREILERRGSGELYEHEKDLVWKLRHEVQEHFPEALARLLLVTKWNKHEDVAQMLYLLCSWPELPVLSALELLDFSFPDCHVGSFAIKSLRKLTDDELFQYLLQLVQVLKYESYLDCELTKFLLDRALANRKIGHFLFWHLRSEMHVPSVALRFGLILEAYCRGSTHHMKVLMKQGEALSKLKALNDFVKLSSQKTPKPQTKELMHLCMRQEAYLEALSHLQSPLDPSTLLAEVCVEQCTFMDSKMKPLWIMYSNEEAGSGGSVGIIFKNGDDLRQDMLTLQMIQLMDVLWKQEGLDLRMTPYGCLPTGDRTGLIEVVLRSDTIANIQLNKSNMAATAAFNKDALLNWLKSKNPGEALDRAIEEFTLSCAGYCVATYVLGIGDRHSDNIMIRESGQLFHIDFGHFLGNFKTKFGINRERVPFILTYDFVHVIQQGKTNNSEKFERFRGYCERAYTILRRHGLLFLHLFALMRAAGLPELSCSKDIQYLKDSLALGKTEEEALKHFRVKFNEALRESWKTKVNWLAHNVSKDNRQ
T1 sequence (P27986 whole entry partner, canonical isoform): as the sequence (P27986 whole entry partner, canonical isoform) above

SMILES | IC50 (PI3K-delta) [nM] | Selectivity versus PI3Kalpha (PI3K-alpha)
CCn1c(-c2cnc(C)nc2)nc2c(N[C@H]3CCCN(C(=O)OC(C)(C)C)C3)ncnc21 [Compound 1-16, tert-butyl (3S)-3-{[9-ethyl-8-(2-methylpyrimidin-5-yl)-9H-purin-6-yl]amino}piperidine-1-carboxylate] | 49 | >10
CCn1c(-c2cnc(C)nc2)nc2c(N[C@H]3C[C@H](C(=O)OC)N(C(=O)OC(C)(C)C)C3)ncnc21 [Compound 1-17, 1-tert-butyl 2-methyl (2R,4S)-4-{[9-ethyl-8-(2-methylpyrimidin-5-yl)-9H-purin-6-yl]amino}pyrrolidine-1,2-dicarboxylate] | 8.8 | >10
CCn1c(-c2cnc(C)nc2)nc2c(N[C@H]3C[C@H](C(=O)O)N(C(=O)OC(C)(C)C)C3)ncnc21 [Compound 1-18, (4S)-1-(tert-butoxycarbonyl)-4-{[9-ethyl-8-(2-methylpyrimidin-5-yl)-9H-purin-6-yl]amino}-D-proline] | 2 | >10
CCn1c(-c2cnc(C)nc2)nc2c(N[C@H]3C[C@@H](C(=O)OC)N(C(=O)OC(C)(C)C)C3)ncnc21 [Compound 1-19, 1-tert-butyl 2-methyl (2S,4S)-4-{[9-ethyl-8-(2-methylpyrimidin-5-yl)-9H-purin-6-yl]amino}pyrrolidine-1,2-dicarboxylate] | 69 | >10
CCn1c(-c2cnc(C)nc2)nc2c(N[C@H]3C[C@H](CO)N(C(=O)OC(C)(C)C)C3)ncnc21 [Compound 1-20, tert-butyl (2R,4S)-4-{[9-ethyl-8-(2-methylpyrimidin-5-yl)-9H-purin-6-yl]amino}-2-(hydroxymethyl)pyrrolidine-1-carboxylate] | 12 | >10
CCn1c(-c2ccc(C(F)(F)F)nc2)nc2c(N[C@H]3CCN(C(=O)OC(C)(C)C)C3)ncnc21 [Compound 1-22, tert-butyl (3S)-3-({9-ethyl-8-[6-(trifluoromethyl)pyridin-3-yl]-9H-purin-6-yl}amino)pyrrolidine-1-carboxylate] | < 1 | >10
CCn1c(-c2ccc(OC)nc2)nc2c(N[C@H]3CCN(C(=O)OC(C)(C)C)C3)ncnc21 [Compound 1-23, tert-butyl (3S)-3-{[9-ethyl-8-(6-methoxypyridin-3-yl)-9H-purin-6-yl]amino}pyrrolidine-1-carboxylate] | < 1 | >10
CCn1c(-c2ccc(C(F)(F)F)cc2)nc2c(N[C@H]3CCN(C(=O)OC(C)(C)C)C3)ncnc21 [Compound 1-24, tert-butyl (3S)-3-({9-ethyl-8-[4-(trifluoromethyl)phenyl]-9H-purin-6-yl}amino)pyrrolidine-1-carboxylate] | 1.5 | >10

The next lines start with the values.

IC50 (PI3K-delta) [nM] | Selectivity versus PI3Kalpha (PI3K-alpha) | SMILES
32 | >10 | CCC(=O)N1CC[C@@H](Nc2ncnc3c2nc(-c2cnn(CC)c2C)n3C)C1 [Compound 2-1, 8-(1-ethyl-5-methyl-1H-pyrazol-4-yl)-9-methyl-N-[(3R)-1-propanoylpyrrolidin-3-yl]-9H-purin-6-amine]
< 1 | >10 | CCC(=O)N1CC[C@H](Nc2ncnc3c2nc(-c2cnn(CC)c2C)n3C)C1 [Compound 2-3, (S)-1-(3-((8-(1-ethyl-5-methyl-1H-pyrazol-4-yl)-9-methyl-9H-purin-6-yl)amino)pyrrolidin-1-yl)propan-1-one]
< 1 | >10 | CCn1ncc(-c2nc3c(N[C@H]4CCN(C(=O)C5CCOCC5)C4)ncnc3n2C)c1C [Compound 2-4, 8-(1-ethyl-5-methyl-1H-pyrazol-4-yl)-9-methyl-N-[(3S)-1-(tetrahydro-2H-pyran-4-ylcarbonyl)pyrrolidin-3-yl]-9H-purin-6-amine]
